Source: PubChem BioAssay (NCI)
“And” between values parts separate entries of the source, which are not always exact repeats. Identical values can stand only once.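 Exposure lasted 48 hours, with cells grown in 96-well plates and compounds tested at five concentrations. GI50 = concentration required for 50% inhibition of growth. Definition used: TGI = concentration required for complete inhibition of growth.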

How the values were obtained:
Assay in all cases: growth of human tumour cells (NCI), 48 h
SR leukemia = tested on: SR leukemia
OVCAR-4 ovarian = tested on: OVCAR-4 ovarian
NCI-H226 lung = tested on: NCI-H226 lung
786-0 renal = tested on: 786-0 renal
SF-295 CNS = tested on: SF-295 CNS
HCT-116 colon = tested on: HCT-116 colon
SF-539 CNS = tested on: SF-539 CNS
UO-31 renal = tested on: UO-31 renal
UACC-257 melanoma = tested on: UACC-257 melanoma
NCI-H460 lung = tested on: NCI-H460 lung

SMILES | TGI (SR leukemia) | TGI (OVCAR-4 ovarian) | TGI (NCI-H226 lung) | TGI (786-0 renal) | TGI (SF-295 CNS) | TGI (HCT-116 colon) | TGI (SF-539 CNS) | TGI (UO-31 renal) | TGI (UACC-257 melanoma) | TGI (NCI-H460 lung) | GI50 (SR leukemia) | GI50 (OVCAR-4 ovarian) | GI50 (NCI-H226 lung) | GI50 (786-0 renal) | GI50 (SF-295 CNS) | GI50 (HCT-116 colon) | GI50 (SF-539 CNS) | GI50 (UO-31 renal) | GI50 (UACC-257 melanoma) | GI50 (NCI-H460 lung)
CCCCCCCCCCCCCCC1OC(=O)c2ccccc21 (stereo not given) | > 100 µM | > 100 µM | > 100 µM | > 100 µM | > 100 µM | > 100 µM | > 100 µM | > 100 µM | > 100 µM | > 100 µM | – | – | – | – | – | – | – | – | – | –
O=c1[nH]c(=O)n(C2CC(O)C(CO)O2)cc1C#Cc1c(F)c(F)c(F)c(F)c1F (stereo not given) | > 100 µM | > 100 µM | > 100 µM | > 100 µM | > 100 µM | > 100 µM | > 100 µM | > 100 µM | > 100 µM | > 100 µM | – | – | – | – | – | – | – | – | – | –
C[C@@H]1Cc2c([nH]c3ccccc23)[C@@H](c2c(F)cc(/C=C/C(=O)O)cc2F)N1CC(C)(C)F | 48.4 µM | 52.8 µM | 45.2 µM | 28.1 µM | 22.6 µM | 26.7 µM | 32.4 µM | 21.6 µM | 49.7 µM | 27.8 µM | 15.9 µM | 15.2 µM | 18.2 µM | 14.2 µM | 8.65 µM | 12.7 µM | 14.5 µM | 8.1 µM | 21.7 µM | 11.5 µM
O=C1/C(=C/c2ccccc2)CN(C(=O)Oc2ccc(Cl)cc2)C/C1=C\c1ccccc1 | 4.33 µM | 3.52 µM | 16.6 µM | 3.96 µM | 5.79 µM | 0.593 µM | 5.92 µM | 15.5 µM | 4.33 µM | 9.84 µM | – | – | – | – | – | – | – | – | – | –
O=c1c(Cl)c(Cl)cnn1-c1ccccc1 | > 19.7 µM and 3.92 µM | 3.95 µM and 2.38 µM | 12.9 µM and 21.4 µM | 11.1 µM and 12.1 µM | 9.7 µM and 32.3 µM | 3.5 µM and 6.4 µM | 10.2 µM and 23.2 µM | 8.91 µM and 7.47 µM | 14.1 µM and 48.4 µM | 10.3 µM and 8.61 µM | – | – | – | – | 5.18 µM and 16 µM | – | 4.74 µM and 9.8 µM | – | – | –
OCCNCO | > 100 µM | > 100 µM | > 100 µM | > 100 µM | > 100 µM | > 100 µM | > 100 µM | > 100 µM | > 100 µM | > 100 µM | – | – | – | – | – | – | – | – | – | –
N#Cc1cnn2ccn(C3OC(COC(=O)c4ccccc4)C(OC(=O)c4ccccc4)C3OC(=O)c3ccccc3)c12 (stereo not given) | > 31.6 µM | > 21.5 µM | > 21.5 µM | > 21.5 µM | > 21.5 µM | > 21.5 µM | > 21.5 µM | > 21.5 µM | > 21.5 µM | > 21.5 µM | – | – | – | – | – | – | – | – | – | –
CC(=O)/C=C/c1cccc(N=S)c1 | > 100 µM | > 100 µM | > 83.3 µM | 13.1 µM | 54.3 µM | 2.72 µM | 20.8 µM | > 74 µM | > 67.4 µM | > 53.8 µM | – | – | – | – | – | – | – | – | – | –
ClCc1ccccc1CSc1ncnc2nc[nH]c12 | > 60 µM | > 60 µM | > 60 µM | > 60 µM | > 60 µM | > 60 µM | > 60 µM | > 60 µM | > 60 µM | > 60 µM | > 60 µM | > 60 µM | > 60 µM | > 60 µM | > 60 µM | > 60 µM | > 60 µM | > 60 µM | > 60 µM | > 60 µM
CN(C)S(=O)(=O)Nc1ccccn1 | > 100 µM | > 100 µM | > 100 µM | > 100 µM | > 100 µM | > 100 µM | > 100 µM | > 100 µM | > 100 µM | > 100 µM | – | – | – | – | – | – | – | – | – | –
N#Cc1c(O)c2c(c(O)c1C#N)C(=O)c1ccccc1C2=O | 5.35 µM | 3.79 µM | 25.3 µM | 5.45 µM | 14.2 µM | 2.94 µM | 5.53 µM | 9.81 µM | 4.82 µM | > 33.8 µM | 1.82 µM | 1.43 µM | 2.83 µM | 2.45 µM | 1.88 µM | 1.3 µM | 2.6 µM | 2.3 µM | 1.57 µM | 1.04 µM
CC(=O)c1ccc(N(/C=C/C(=O)C(F)(F)F)CC(=O)c2ccc(Cl)c(Cl)c2)cc1 | 19.3 µM | 33.4 µM | 27.3 µM | 32 µM | 26.2 µM | 26.2 µM | 36.6 µM | 30.5 µM | 29.4 µM | > 100 µM | 3.59 µM | 14 µM | 10.9 µM | 17.8 µM | 12.3 µM | 13.4 µM | 20.5 µM | 16.5 µM | 15.2 µM | 15.6 µM
O=[n+]1c(CBr)c(CBr)n([O-])c2ccccc21 | > 100 µM | 20.4 µM | 30.7 µM | 25.7 µM | 36 µM | 14.5 µM | 26.3 µM | 3 µM | 27.6 µM | 34.6 µM | 2.82 µM | 6.81 µM | 11.7 µM | 11.9 µM | 17.2 µM | 3.94 µM | 13.3 µM | 1.44 µM | 13.6 µM | 16.9 µM
O=C(O)CCCc1ccc(N(CCCl)CCCl)cc1 | – | 43.5 µM and 327 µM and 284 µM | 42.4 µM and 276 µM and 362 µM | 28.4 µM and 181 µM and 133 µM | – | 63 µM and 389 µM and 328 µM | 26.9 µM and 99.4 µM and 89.6 µM | 34.7 µM and 272 µM and 56.2 µM | 60.7 µM and 298 µM and 306 µM | 44.5 µM and 228 µM | 0.922 µM | 24.7 µM and 185 µM | 16.1 µM and 120 µM | 7.67 µM and 35.7 µM | 11.7 µM and 64.6 µM | 23 µM and 144 µM | 7.28 µM and 18.2 µM | 9.38 µM and 32 µM | 26 µM and 148 µM | 2.13 µM
CN=C1NC(=O)/C(=C/c2ccc3ncccc3c2)S1 | 16.7 µM | > 25 µM | > 25 µM | > 25 µM | > 25 µM | > 25 µM | > 25 µM | > 25 µM | > 25 µM | > 25 µM | 2.14 µM | 10.2 µM | 8.16 µM | 10.7 µM | 7.97 µM | 5.29 µM | 5.88 µM | 5.29 µM | 7.18 µM | 7.79 µM
CC(=O)OCCc1cccnc1/C=N/O | > 100 µM | > 100 µM | > 100 µM | > 100 µM | > 100 µM | > 100 µM | > 100 µM | > 100 µM | > 100 µM | > 100 µM | – | – | – | – | – | – | – | – | – | –
COc1cc2c(c(O)c1C)C(=O)C(Cl)=CC2=O | 4.37 µM | 33.7 µM | 36.5 µM | 28.2 µM | 34.4 µM | 22.6 µM | 33.5 µM | 21.6 µM | 18.7 µM | 63.3 µM | – | – | – | – | – | – | – | – | – | –
